Reference: patent publication US10172378B2, “Mono- or bicyclic carboxylic acids as off-note blockers” (Givaudan, S.A., priority 2007, dated 2019)
Where two headings read alike, the source gives them in different places.

Target: T1, human TAS2R44 bitter taste receptor (Homo sapiens, UniProt P59538, L162M)
T1 construct: The TAS2R44 construct contains RSS tag, TAS2R44, and the HSV tag which are fused in frame; expressed in transfected cells; host or cells: HEK293T cells stably expressing Galpha16-gustducin44
T1 sequence (P59538 with tags, fused parts or gaps L162M): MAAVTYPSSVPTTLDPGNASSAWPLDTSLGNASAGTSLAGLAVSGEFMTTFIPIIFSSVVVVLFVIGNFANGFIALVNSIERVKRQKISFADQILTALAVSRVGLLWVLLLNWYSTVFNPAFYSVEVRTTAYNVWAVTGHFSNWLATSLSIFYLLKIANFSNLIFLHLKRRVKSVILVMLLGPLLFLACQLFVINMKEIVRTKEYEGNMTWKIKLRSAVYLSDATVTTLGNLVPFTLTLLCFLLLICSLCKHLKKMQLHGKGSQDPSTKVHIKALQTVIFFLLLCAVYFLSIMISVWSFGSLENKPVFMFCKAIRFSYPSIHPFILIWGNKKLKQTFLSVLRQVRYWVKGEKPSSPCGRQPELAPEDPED
Experiment: TAS2R44 bitter taste receptor Fluo-4 calcium assay for IC50 determination
Type: cell-based
Procedure: A taste receptor screen and concentration-response analysis was performed and from results inhibitory concentration (IC) IC50 values can be calculated by nonlinear regression using the function f(x)=(a−d)/(1+(x/C)^nh)+d; with a=minimum signal, d=maximum signal, nh=hill coefficient, C=IC50 and x=concentration of antagonist. IC50 is the molar concentration of an antagonist which produces 50% of the maximum possible inhibitory response for that antagonist.
TAS2R44 Bitter Taste Receptor Assay for IC 50 Determination
The full length gene of human TAS2R44 was amplified by polymerase chain reaction (PCR) using gene-specific primers that span the entire coding region as described in WO 2004/029087.
The TAS2R44 cDNA was subcloned into an expression cassette based on either of the following plasmids/expression vectors: pcDNA3.1Zeo (Invitrogen). These vectors contain within their multiple cloning sites the nucleotide sequence coding for the first 45 amino acids of the rat somatostatin receptor subtype 3 (RSS tag) to facilitate cell surface targeting of the transgene (SEQ ID #4) and the nucleotide sequence coding for the herpes simplex virus (HSV) glycoprotein D epitope (HSV epitope in aminoterminal to carboxyterminal direction, HSV tag). (SEQ ID #3) for facilitating immunocytochemical detection.
The TAS2R44 construct contains RSS tag, TAS2R44, and the HSV tag which are fused in frame to allow translation into the receptor protein and the resulting receptor cDNA.
This transfected expression vector is called pcDNA3.1Zeo-TAS2R44 (SEQ ID #1) and allows for expression of the TAS2R44 protein (SEQ ID #2).
A cell line that stably expresses the human bitter taste receptor (TAS2R44) was generated by transfecting pcDNA3.1Zeo-TAS2R44 into HEK293T/Gα16-gustducin 44 cells (both formed as described in under 1) above). The host cell line HEK-293T is commercially available from the American […] (catalog #CRL-1573).
On day 0, the HEK293T Gα16-gustducin44 cells were seeded in a 6-well plate at a density of 900,000 cells per well and grown over night in selective growth medium (DMEM with 10% (v/v) heat-inactivated fetal bovine serum, 2 mM L-glutamine, 100 units/ml penicillin, 100 μg/ml streptomycin, 200 μg/ml G418 and 200 μg/ml zeocin). On day 1, the medium was exchanged with 2 ml of antibiotic-free and serum-free growth medium. 10 μl Lipofectamine 2000 was dissolved in 250 μl DMEM and incubated for 5 minutes at room temperature. In parallel, 4 μg TAS2R44 vector DNA were dissolved in 250 μl DMEM. These two resulting solutions are mixed and incubated for 20 minutes at room temperature before they are added to the cells into the cell culture medium. After 4 hours, the medium is replaced with antibiotic-free, serum-containing growth medium.
Fluo-4_AM (Invitrogen) is a fluorescent indicator of intracellular calcium dynamics (change in concentration) and allows monitoring changes in the calcium concentration, particularly an increase in response to receptor activation occurring after agonist exposure.
At day 0, the HEK293T cell line stably expressing Gα16-gustducin44 and TAS2R44 formed as described under 2) was seeded in antibiotic-free growth medium (standard DMEM with 10% (v/v) heat-inactivated fetal bovine serum, 2 mM L-glutamine […]) into black wall/clear bottom 96-well plates, coated with poly(ethylenimine) (0.005% v/v) at a concentration of 15,000 cells per well and incubated for 48 hours in humidified atmosphere (37° C., 5% CO2).
At the time of the assay, the growth medium was discarded and the cells were further incubated in a humidified atmosphere (37° C., 5% CO2) for 1 hour with 50 μl of loading buffer consisting of 1.5 μM Fluo-4 AM and […] (Sigma-Aldrich) in DMEM. […]

[1] = agonist not stated, read-out: IC50 when tested with the TAS2R44 bitter taste receptor
[2] = Acesulfame K (0.8 mM) as agonist, same range as example 3
[3] = saccharin (0.5 mM) as agonist, HEK293T cells expressing Gα16-gustducin44 and TAS2R44, read-out: IC50

| Compound | IC50 [1] [µM] | IC50 [2] | IC50 [3] [µM] |
| --- | --- | --- | --- |
| CC(C)CCC[C@H]1CC[C@@H](C(=O)O)CC1 [cis-4-(4-methylpentyl)cyclohexanecarboxylic acid] | 0.1 to 20 | – | – |
| O=C(O)[C@H]1CC[C@@H](Cc2ccccc2)CC1 [cis-4-benzylcyclohexanecarboxylic acid] | 0.1 to 20 | – | – |
| O=C(O)[C@H]1CC[C@@H](c2ccccc2)CC1 [cis-4-phenylcyclohexanecarboxylic acid] | 0.1 to 20 | – | – |
| CCC[C@]12CC[C@](C(=O)O)(CC1)CC2 [cis-4-propylbicyclo[2.2.2]octane-1-carboxylic acid] | 0.1 to 20 | – | – |

Next, values leading:

| IC50 [1] [µM] | IC50 [2] | IC50 [3] [µM] | Compound |
| --- | --- | --- | --- |
| 0.1 to 20 | within the same range | 0.05 to 25 | CCC[C@H]1CC[C@@H](C(=O)O)CC1 [cis-4-propylcyclohexanecarboxylic acid] |
| 0.1 to 20 | – | – | CCC(C)[C@H]1CC[C@@H](C(=O)O)CC1 (stereo partly drawn) [cis-4-sec-butylcyclohexanecarboxylic acid] |
| 0.1 to 20 | within the same range | 0.05 to 25 | CC(C)(C)[C@H]1CC[C@@H](C(=O)O)CC1 [cis-4-tert-butylcyclohexanecarboxylic acid] |
